Test results taken from patent US6869797B2, “Method for more efficient electroporation” (Stratagene California, priority 1998, dated 2005).

What was measured:
[1] = system: E. coli; assay: Effect of additives added to thawed competent cells on electroporation efficiency (pCMV-Script plasmid); assay type: cell-based; settings: added after thawing, colonies with additive divided by colonies without
Description: Specifically, galactose (an aldohexose monosaccharide), maltose (an aldohexose disaccharide), mannitol (an aldohexose alcohol), and sorbitol (an aldohexose alcohol) additives were tested.
After two hours of freezing, competent cells were thawed and amounts varying between 0.1% and 5.0% of various sugar or sugar aldoses were added to the thawed cells. 1 μl of 10 pg/μl plasmid, pCMV-Script (Stratagene #211199) in TE buffer or water (or other low-ionic strength buffer) was added to 40 μl of the treated cells in a chilled 1.5 ml Microfuge tube. The cells were gently mixed and chilled.
The DNA-cell mixture was transferred to a chilled electroporation cuvette. The cuvette was pulsed once, using a Bio-Rad II Gene Pulsar, at 1.7 kV (kilo Volts), 200 Ω and 25 μF. The cuvette was immediately removed and 960 μl of SOC medium (2 ml of 20% glucose and 1 ml of 2M Mg per 100 ml of SOB medium) was added to resuspend the cells.
That suspension was transferred to a sterile 15-ml Falcon 2059 polypropylene tube and shaken at 225-250 rpm at 37° C. for 1 hour. We pipetted 2.5 μl of transformed cells into a 100 μl pool of SOC medium on an Amp plate (Sambrook et al. 1997). The cell/media mixture was spread over the Amp plates. The plates were incubated overnight (16-20 hours) at 37° C.

[2] = system: XL1-Blue cells; assay: Effect of sorbitol added before freezing on electrotransformation efficiency (pUC18 plasmid); assay type: cell-based, E. coli; settings: average of 6 values
Description: The effect of adding sugars, prior to freezing the cells, was tested for improved electroporation efficiency. Sorbitol was chosen as the first test compound.
To determine the optimal concentration of sorbitol, the above protocol was followed to produce electrocompetent bacterial cells. However, before freezing the cells, a solution of sorbitol was added such that the final concentrations of the suspension of cells varied from 0%, 1.0%, 2.0%, and 2.5%.
1 μl of 10 pg/μl plasmid, pUC18 (New England Biolabs) in TE buffer or water (or other low-ionic strength buffer), was added to 40 μl of the treated cells in a chilled 1.5 ml Microfuge tube. Transformed cells were obtained by following the above protocol. Various experiments were run to determine the efficiency of transformation. Five different preparations were tested in triplicate, and each preparation was plated in duplicate.

[3] = additive final concentration 1.0%
[4] = additive final concentration 2.0%
[5] = additive final concentration 0.75%

Compound `OC[C@H]1O[C@H](O[C@H]2[C@H](O)[C@@H](O)C(O)O[C@@H]2CO)[C@H](O)[C@@H](O)[C@@H]1O` (mixture of isomers) [maltose] has a Relative efficiency [1, 3] of 1.50, a Relative efficiency ([1]; additive final concentration 2.5%) of 3.00 and a Relative efficiency ([1]; additive final concentration 3.0%) of 1.30. For the same compound, the Relative efficiency ([1]; additive final concentration 4.0%) was 1.50.

With `O=C[C@H](O)[C@@H](O)[C@@H](O)[C@H](O)CO` [galactose] the Relative efficiency ([1]; additive final concentration 0.5%) was 2.20, the Relative efficiency [1, 3] was 1.50 and the Relative efficiency [1, 4] was 2.40.

`OC[C@@H](O)[C@@H](O)[C@H](O)[C@H](O)CO` [mannitol] was tested, and the Relative efficiency [1, 5] was 3.00, the Relative efficiency [1, 3] was 2.80 and the Relative efficiency ([1]; additive final concentration 1.25%) was 3.30. It also gave a Relative efficiency [1, 4] of 2.90, a Relative efficiency ([1]; additive final concentration 2.20%) of 2.80 and a Relative efficiency ([1]; additive final concentration 2.40%) of 1.90.

`OC[C@@H](O)[C@@H](O)[C@H](O)[C@@H](O)CO` [sorbitol] was tested, and the Relative efficiency [1, 5] was 2.20, the Relative efficiency [1, 3] was 2.80 and the Relative efficiency ([1]; additive final concentration 1.50%) was 3.10. The Relative efficiency [1, 4] was 1.50, the “Efficiency (cfu/ug pUC18)” value ([2]; Experiment #1, 2.0% sorbitol added before freezing) was 1.2 × 10^10 cfu/ug pUC18 and the “Efficiency (cfu/ug pUC18)” value ([2]; Experiment #1, 2.5% sorbitol added before freezing) was 1.6 × 10^10 cfu/ug pUC18. The “Efficiency (cfu/ug pUC18)” value ([2]; Experiment #2, 1.0% sorbitol added before freezing) was 1.23 × 10^10 cfu/ug pUC18, the “Efficiency (cfu/ug pUC18)” value ([2]; Experiment #2, 2.0% sorbitol added before freezing) was 1.66 × 10^10 cfu/ug pUC18 and the “Efficiency (cfu/ug pUC18)” value ([2]; Experiment #2, 2.5% sorbitol added before freezing) was 1.48 × 10^10 cfu/ug pUC18. The “Efficiency (cfu/ug pUC18)” value ([2]; Experiment #3, 1.0% sorbitol added before freezing) was 1.03 × 10^10 cfu/ug pUC18, the “Efficiency (cfu/ug pUC18)” value ([2]; Experiment #3, 2.0% sorbitol added before freezing) was 1.23 × 10^10 cfu/ug pUC18 and the “Efficiency (cfu/ug pUC18)” value ([2]; Experiment #3, 2.5% sorbitol added before freezing) was 1.33 × 10^10 cfu/ug pUC18. For the same compound, the “Efficiency (cfu/ug pUC18)” value ([2]; Experiment #4, 2.0% sorbitol added before freezing) was 1.29 × 10^10 cfu/ug pUC18, the “Efficiency (cfu/ug pUC18)” value ([2]; Experiment #4, 2.5% sorbitol added before freezing) was 1.39 × 10^10 cfu/ug pUC18 and the “Efficiency (cfu/ug pUC18)” value ([2]; Experiment #5, 2.0% sorbitol added before freezing) was 1.60 × 10^10 cfu/ug pUC18. For the same compound, the “Efficiency (cfu/ug pUC18)” value ([2]; Experiment #5, 2.5% sorbitol added before freezing) was 1.60 × 10^10 cfu/ug pUC18.
